Measurements: PubChem BioAssay (NCI)
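Interpolation was linear, between the two tested concentrations surrounding the appropriate level; five concentrations were tested over 48 hours in 96-well plates. Here, GI50 denotes the concentration required for 50% inhibition of growth. TGI: concentration producing complete growth inhibition.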

What was measured:
Test in all cases: DTP human tumour cell line panel, 48 h
[1] = tested on: 786-0 renal
[2] = tested on: A498 renal
[3] = tested on: A549 NSCLC
[4] = tested on: ACHN renal
[5] = tested on: BT-549 breast
[6] = tested on: CAKI-1 renal
[7] = tested on: CCRF-CEM leukemia
[8] = tested on: COLO 205 colon
[9] = tested on: DU-145 prostate
[10] = tested on: EKVX NSCLC
[11] = tested on: HCC-2998 colon
[12] = tested on: HCT-116 colon
[13] = tested on: HCT-15 colon
[14] = tested on: HL-60(TB) leukemia
[15] = tested on: HOP-62 NSCLC
[16] = tested on: HOP-92 NSCLC
[17] = tested on: HS 578T breast
[18] = tested on: HT29 colon
[19] = tested on: IGROV1 ovarian
[20] = tested on: K-562 leukemia
[21] = tested on: KM12 colon
[22] = tested on: LOX IMVI melanoma
[23] = tested on: M14 melanoma
[24] = tested on: MALME-3M melanoma
[25] = tested on: MCF7 breast
[26] = tested on: MDA-MB-231 breast
[27] = tested on: MDA-MB-435
[28] = tested on: MOLT-4 leukemia
[29] = tested on: NCI-H226 lung
[30] = tested on: NCI-H23 lung
[31] = tested on: NCI-H460 lung
[32] = tested on: NCI-H522 lung
[33] = tested on: NCI/ADR-RES ovarian
[34] = tested on: OVCAR-3 ovarian
[35] = tested on: OVCAR-4 ovarian
[36] = tested on: OVCAR-5 ovarian
[37] = tested on: OVCAR-8 ovarian
[38] = tested on: PC-3 prostate
[39] = tested on: RPMI-8226 leukemia
[40] = tested on: RXF 393 renal
[41] = tested on: SF-268 CNS
[42] = tested on: SF-295 CNS
[43] = tested on: SF-539 CNS
[44] = tested on: SK-MEL-2 melanoma
[45] = tested on: SK-MEL-28 melanoma
[46] = tested on: SK-MEL-5 melanoma
[47] = tested on: SK-OV-3 ovarian
[48] = tested on: SN12C renal
[49] = tested on: SNB-19 CNS
[50] = tested on: SNB-75 CNS
[51] = tested on: SR leukemia
[52] = tested on: SW-620 colon
[53] = tested on: T-47D breast
[54] = tested on: TK-10 renal
[55] = tested on: U251 CNS
[56] = tested on: UACC-257 melanoma
[57] = tested on: UACC-62 melanoma
[58] = tested on: UO-31 renal

## COc1cc2nc(C)nc(N[C@H](C)c3cc(N)cc(C(F)(F)F)c3)c2cc1O[C@H]1CCOC1
[1]
  GI50: 9.82 µM
  TGI: 23.1 µM
[2]
  GI50: 0.109 µM
  TGI: 7.84 µM
[3]
  GI50: 14.8 µM
  TGI: 32.4 µM
[4]
  GI50: 11.6 µM
  TGI: 23.9 µM
[5]
  GI50: 11.5 µM
  TGI: 24.2 µM
[6]
  GI50: 7.14 µM
  TGI: 24.1 µM
[7]
  GI50: 13.5 µM
  TGI: 49.3 µM
[8]
  GI50: 15.8 µM
  TGI: 33.4 µM
[9]
  GI50: 16.2 µM
  TGI: 30.5 µM
[10]
  GI50: 11.1 µM
  TGI: 26.5 µM
[11]
  GI50: 17 µM
  TGI: 33.2 µM
[12]
  GI50: 11.4 µM
  TGI: 29.6 µM
[13]
  GI50: 12.6 µM
  TGI: 27.6 µM
[14]
  GI50: 14 µM
  TGI: 39.2 µM
[15]
  GI50: 11.1 µM
  TGI: 25.6 µM
[16]
  GI50: 0.0623 µM
  TGI: 7.31 µM
[17]
  GI50: 14.7 µM
  TGI: 38.9 µM
[18]
  GI50: 13.4 µM
  TGI: 28.4 µM
[19]
  GI50: 2.25 µM
  TGI: 20.3 µM
[20]
  GI50: 0.489 µM
  TGI: 23.2 µM
[21]
  GI50: 14.9 µM
  TGI: 30 µM
[22]
  GI50: 12.2 µM
  TGI: 28.1 µM
[23]
  GI50: 16.1 µM
  TGI: 31.7 µM
[24]
  GI50: 18.2 µM
  TGI: 33.4 µM
[25]
  GI50: 12.9 µM
  TGI: 31.3 µM
[26]
  GI50: 12.1 µM
  TGI: 28.6 µM
[27]
  GI50: 16.8 µM
  TGI: 30.5 µM
[28]
  GI50: 12.3 µM
  TGI: 41.5 µM
[29]
  GI50: 16.9 µM
  TGI: 38.8 µM
[30]
  GI50: 13.2 µM
  TGI: 30.6 µM
[31]
  GI50: 18.5 µM
  TGI: 36.6 µM
[32]
  GI50: 12.8 µM
  TGI: 29.3 µM
[33]
  GI50: 18.3 µM
  TGI: 60.9 µM
[34]
  GI50: 15.6 µM
  TGI: 38.4 µM
[35]
  GI50: 17 µM
  TGI: 55.1 µM
[36]
  GI50: 13.4 µM
  TGI: 28.5 µM
[37]
  GI50: 15.5 µM
  TGI: 42.8 µM
[38]
  GI50: 10.4 µM
  TGI: 23.4 µM
[39]
  GI50: 11 µM
  TGI: 47.9 µM
[40]
  GI50: 5.88 µM
  TGI: 22 µM
[41]
  GI50: 12.5 µM
  TGI: 31.6 µM
[42]
  GI50: 11.6 µM
  TGI: 24.8 µM
[43]
  GI50: 12.4 µM
  TGI: 25.1 µM
[44]
  GI50: 18 µM
  TGI: 34.7 µM
[45]
  GI50: 16 µM
  TGI: 29.6 µM
[46]
  GI50: 13.4 µM
  TGI: 26.5 µM
[47]
  GI50: 14.2 µM
  TGI: 28.3 µM
[48]
  GI50: 6.46 µM
  TGI: 21.9 µM
[49]
  GI50: 12.7 µM
  TGI: 27.4 µM
[50]
  GI50: 10.4 µM
  TGI: 23.3 µM
[51]
  GI50: 2.25 µM
  TGI: 29.2 µM
[52]
  GI50: 14.6 µM
  TGI: 31.3 µM
[53]
  GI50: 16.3 µM
  TGI: 41.4 µM
[54]
  GI50: 2.9 µM
  TGI: 20.6 µM
[55]
  GI50: 10.6 µM
  TGI: 23.7 µM
[56]
  GI50: 16.1 µM
  TGI: 30.5 µM
[57]
  GI50: 16.3 µM
  TGI: 31 µM
[58]
  GI50: 2.28 µM
  TGI: 17.3 µM
